Among the data in patent publication US8563714B2, “Bridged spiro [2.4] heptane derivatives as ALX receptor and/or FPRL2 agonists” (Actelion Pharmaceuticals Ltd., priority 2009, dated 2013) are EC50 values, retold here.

One may read the pEC50 as −log10 of the EC50, conventionally taken in molar units.

One assay deals with T1, human FPRL2 (Homo sapiens, UniProt P25089).
T1 construct: expressed in transfected cells; host or cells: HEK293 (HEK293-hFPRL2-Gα16)
T1 sequence (P25089 1-353): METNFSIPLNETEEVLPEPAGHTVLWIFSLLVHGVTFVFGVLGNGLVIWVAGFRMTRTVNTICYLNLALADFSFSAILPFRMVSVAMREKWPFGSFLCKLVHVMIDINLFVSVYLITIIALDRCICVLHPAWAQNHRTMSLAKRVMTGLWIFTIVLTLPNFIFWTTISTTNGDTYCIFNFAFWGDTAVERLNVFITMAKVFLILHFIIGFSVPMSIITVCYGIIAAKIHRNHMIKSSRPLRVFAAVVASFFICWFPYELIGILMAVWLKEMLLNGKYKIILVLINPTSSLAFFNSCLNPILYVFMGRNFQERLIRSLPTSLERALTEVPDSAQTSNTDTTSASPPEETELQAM
The experiment in a line: Intracellular calcium measurements (FLIPR), agonistic activity in HEK293-hFPRL2-Gα16 cells. Format: cell-based. The conditions noted are these: Fluo-4 calcium FLIPR, normalized to GLY14-Humanin 100 nM. The procedure, abridged: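 Peak values after baseline subtraction are expressed relative to 100 nM Gly14-Humanin; compounds diluted in assay buffer from 10 mM DMSO stocks.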

The target in the next assay is T2, human ALX receptor (Homo sapiens, UniProt P25090).
T2 construct: expressed in transfected cells; host or cells: HEK293 (HEK293-hALXR-Gα16)
T2 sequence (P25090 1-351): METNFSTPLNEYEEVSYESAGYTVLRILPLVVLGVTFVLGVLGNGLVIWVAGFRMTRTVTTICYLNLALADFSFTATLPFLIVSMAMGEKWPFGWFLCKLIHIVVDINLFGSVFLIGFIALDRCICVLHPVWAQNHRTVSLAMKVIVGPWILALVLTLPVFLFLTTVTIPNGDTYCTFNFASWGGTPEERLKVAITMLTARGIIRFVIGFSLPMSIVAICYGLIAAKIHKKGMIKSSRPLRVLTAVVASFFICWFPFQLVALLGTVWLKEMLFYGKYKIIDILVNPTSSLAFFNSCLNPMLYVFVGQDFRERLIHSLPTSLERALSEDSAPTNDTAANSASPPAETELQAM
The experiment in a line: Intracellular calcium measurements (FLIPR), agonistic activity in HEK293-hALXR-Gα16 cells. The assay is classed as cell-based. The conditions noted are these: Fluo-4 calcium FLIPR, normalized to WKYMVm 10 nM. Summed up:
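HEK293 cells expressing hALXR and Gα16 were loaded with 1 μM Fluo-4 AM and 20 mM HEPES for 60 min at 37°C, then exposed to serially diluted compound. FLIPR fluorescence was read at ex 488/em 540 nm. Baseline-subtracted peak responses were normalized to 10 nM WKYMVm.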
For orientation: Calcium flux is commonly read through the fluorescence of an indicator in the cells.

pEC50: −log10 of the molar value.

In the case of `CC(=O)c1csc(CNC(=O)[C@H]2[C@H](C(=O)NCCCCN3CCCC3)[C@H]3C=C[C@@H]2C32CC2)n1` (racemic) [Example 191, (5R*)—N^5-(4-Acetyl-thiazol-2-yl-methyl)-(6R*)—N^6-(4-pyrrolidin-1-yl-butyl)-(4S*,7R*)-[4,7-ethenylene-spiro[2.4]heptane]-5,6-dicarboxamide], the results for the pEC50 at human FPRL2 and on human ALX receptor were 6.08 and 6.85, respectively.
In the same order, the values of `CC(=O)c1ccc(NC(=O)[C@H]2[C@H](C(=O)NCCCCN3CCCC3)[C@H]3C=C[C@@H]2C32CC2)cc1` (racemic) [Example 192, (5R*)—N^5-(4-Acetyl-phenyl)-(6R*)—N^6-(4-pyrrolidin-1-yl-butyl)-(4S*,7R*)-[4,7-ethenylene-spiro[2.4]heptane]-5,6-dicarboxamide] are 6.86 and 7.64.
In the same order, the values of `Cc1cnc(NC(=O)[C@H]2[C@H](C(=O)NCCCCN3CCCC3)[C@H]3C=C[C@@H]2C32CC2)s1` (racemic) [Example 193, (5R*)—N^5-(5-Methyl-thiazol-2-yl)-(6R*)—N^6-(4-pyrrolidin-1-yl-butyl)-(4S*,7R*)-[4,7-ethenylene-spiro[2.4]heptane]-5,6-dicarboxamide] are 6.45 and 6.33.
Take `CC(=O)c1ccc(CNC(=O)[C@H]2[C@H](C(=O)NCCCCN3CCCC3)[C@H]3C=C[C@@H]2C32CC2)s1` (racemic) [Example 194, (5R*)—N^5-(5-Acetyl-thiophen-2-yl-methyl)-(6R*)—N^6-(4-pyrrolidin-1-yl-butyl)-(4S*,7R*)-[4,7-ethenylene-spiro[2.4]heptane]-5,6-dicarboxamide]: the figures for the pEC50 at human FPRL2 and on human ALX receptor were 6.36 and 6.65, respectively.
Taken in the same sequence, the figures for `O=C(NCCCCN1CCCC1)[C@H]1[C@H](C(=O)Nc2ccc(C(F)(F)F)cc2)[C@@H]2C=C[C@H]1C21CC1` (racemic) [Example 197, (5R*)—N^5-(4-Trifluoromethyl-phenyl)-(6R*)—N^6-(4-pyrrolidin-1-yl-butyl)-(4S*,7R*)-[4,7-ethenylene-spiro[2.4]heptane]-5,6-dicarboxamide] were 6.98 and 8.27.
Taken in the same sequence, the figures for `CC(=O)c1ncc(CNC(=O)[C@H]2[C@H](C(=O)NCCCCN3CCCC3)[C@H]3C=C[C@@H]2C32CC2)o1` (racemic) [Example 198, (5R*)—N^5-(2-Acetyl-oxazol-5-yl-methyl)-(6R*)—N^6-(4-pyrrolidin-1-yl-butyl)-(4S*,7R*)-[4,7-ethenylene-spiro[2.4]heptane]-5,6-dicarboxamide] were 6.34 and 7.04.
`O=C(NCCCCN1CCCC1)[C@H]1[C@H](C(=O)NCc2ccc(I)cc2)[C@@H]2C=C[C@H]1C21CC1` (racemic) [Example 200, (5R*)—N^5-(4-Iodophenyl-methyl)-(6R*)—N^6-(4-pyrrolidin-1-yl-butyl)-(4S*,7R*)-[4,7-ethenylene-spiro[2.4]heptane]-5,6-dicarboxamide]: the pEC50 was 6.63 on human FPRL2 and 7.38 on human ALX receptor.
In the same order, the values of `CC(C)Cc1cc(CNC(=O)[C@H]2[C@H](C(=O)NCCCCN3CCCC3)[C@H]3C=C[C@@H]2C32CC2)no1` (racemic) [Example 201, (5R*)—N^5-(5-(iso-Butyl)-isoxazol-3-yl-methyl)-(6R*)—N^6-(4-pyrrolidin-1-yl-butyl)-(4S*,7R*)-[4,7-ethenylene-spiro[2.4]heptane]-5,6-dicarboxamide] are 5.84 and 7.03.
In the same order, the values of `O=C(NCCCCN1CCCC1)[C@H]1[C@H](C(=O)NCc2csc(Br)c2)[C@@H]2C=C[C@H]1C21CC1` (racemic) [Example 202, (5R*)—N^5-(2-Bromo-thiophen-4-yl-methyl)-(6R*)—N^6-(4-pyrrolidin-1-yl-butyl)-(4S*,7R*)-[4,7-ethenylene-spiro[2.4]heptane]-5,6-dicarboxamide] are 7.12 and 7.48.
In the same order, the values of `O=C(NCCCCN1CCCC1)[C@H]1[C@H](C(=O)NCc2ccc(Br)cc2F)[C@@H]2C=C[C@H]1C21CC1` (racemic) [Example 203, (5R*)—N^5-(2-Fluoro-4-bromophenyl-methyl)-(6R*)—N^6-(4-pyrrolidin-1-yl-butyl)-(4S*,7R*)-[4,7-ethenylene-spiro[2.4]heptane]-5,6-dicarboxamide] are 6.70 and 7.62.
Take `CN(C)C(=O)CCNC(=O)[C@H]1[C@H](C(=O)Nc2ccc(Br)cc2)[C@@H]2C=C[C@H]1C21CC1` (racemic) [Example 204, (5R*)—N^5-(4-Bromophenyl)-(6R*)—N^6-(3-dimethylamino-3-oxopropyl)-(4S*,7R*)-[4,7-ethenylene-spiro[2.4]heptane]-5,6-dicarboxamide]: the pEC50 was 5.68 at human FPRL2 and 8.47 on human ALX receptor.
In the same order, the values of `NC(=O)CCCNC(=O)[C@H]1[C@H](C(=O)Nc2ccc(Br)cc2)[C@@H]2C=C[C@H]1C21CC1` (racemic) [Example 205, (5R*)—N^5-(4-Bromophenyl)-(6R*)—N^6-(4-amino-4-oxobutyl)-(4S*,7R*)-[4,7-ethenylene-spiro[2.4]heptane]-5,6-dicarboxamide] are 5.32 and 8.14.
Taken in the same sequence, the figures for `O=C(NCCC(=O)N1CCCC1)[C@H]1[C@H](C(=O)Nc2ccc(Br)cc2)[C@@H]2C=C[C@H]1C21CC1` (racemic) [Example 206, (5R*)—N^5-(4-Bromophenyl)-(6R*)—N^6-(3-pyrrolidino-3-oxopropyl)-(4S*,7R*)-[4,7-ethenylene-spiro[2.4]heptane]-5,6-dicarboxamide] were 5.53 and 7.51.
In the same order, the values of `NC(=O)CNC(=O)[C@H]1[C@H](C(=O)Nc2ccc(Br)cc2)[C@@H]2C=C[C@H]1C21CC1` (racemic) [Example 207, (5R*)—N^5-(4-Bromophenyl)-(6R*)—N^6-(2-amino-2-oxoethyl)-(4S*,7R*)-[4,7-ethenylene-spiro[2.4]heptane]-5,6-dicarboxamide] are 5.13 and 8.19.
Take `CNC(=O)CCNC(=O)[C@H]1[C@H](C(=O)Nc2ccc(Br)cc2)[C@@H]2C=C[C@H]1C21CC1` (racemic) [Example 223, (5R*)—N^5-(4-Bromophenyl)-(6R*)—N^6-(3-methylamino-3-oxopropyl)-(4S*,7R*)-[4,7-ethenylene-spiro[2.4]heptane]-5,6-dicarboxamide]: the pEC50 was 5.92 on human FPRL2 and 8.49 on human ALX receptor.
Taken in the same sequence, the figures for `CC(=O)c1ncc(CNC(=O)[C@H]2[C@H](C(=O)NCCCCN3CCCC3)[C@H]3C=C[C@@H]2C32CC2)s1` (racemic) [Example 224, (5R*)—N^5-(2-Acetyl-thiazol-5-yl-methyl)-(6R*)—N^6-(4-pyrrolidin-1-yl-butyl)-(4S*,7R*)-[4,7-ethenylene-spiro[2.4]heptane]-5,6-dicarboxamide] were 5.73 and 6.00.
Taken in the same sequence, the figures for `COc1cc(F)c(CNC(=O)[C@H]2[C@H](C(=O)NCCCCN3CCCC3)[C@H]3C=C[C@@H]2C32CC2)c(F)c1` (racemic) [Example 226, (5R*)—N^5-(2,6-Difluoro-4-methoxy-phenyl-methyl)-(6R*)—N^6-(4-pyrrolidin-1-yl-butyl)-(4S*,7R*)-[4,7-ethenylene-spiro[2.4]heptane]-5,6-dicarboxamide] were 6.45 and 6.04.
In the same order, the values of `COc1ccc(CNC(=O)[C@H]2[C@H](C(=O)NCCCCN3CCCC3)[C@H]3C=C[C@@H]2C32CC2)c(F)c1F` (racemic) [Example 227, (5R*)—N^5-(2,3-Difluoro-4-methoxy-phenyl-methyl)-(6R*)—N^6-(4-pyrrolidin-1-yl-butyl)-(4S*,7R*)-[4,7-ethenylene-spiro[2.4]heptane]-5,6-dicarboxamide] are 7.05 and 6.54.
On to `COc1ccc(CNC(=O)[C@H]2[C@H](C(=O)NCCCCN3CCCC3)[C@H]3C=C[C@@H]2C32CC2)cc1F` (racemic) [Example 228, (5R*)—N^5-(3-Fluoro-4-methoxy-phenyl-methyl)-(6R*)—N^6-(4-pyrrolidin-1-yl-butyl)-(4S*,7R*)-[4,7-ethenylene-spiro[2.4]heptane]-5,6-dicarboxamide], for which the values for the pEC50 on human FPRL2 and on human ALX receptor were 6.51 and 6.41, respectively.
